# According to US11999727B2 (Tango Therapeutics, Inc., priority 2020, dated 2024):
# Like-named read-outs stand apart in the source and are kept apart here.
# What was measured:
# PRMT5 [1] = target: T1, PRMT5 (Homo sapiens, UniProt O14744); experiment: PRMT5 biochemical IC50 assay with SAM as cofactor; conditions: PRMT5, SAM as cofactor; read-out: SAM IC50
# T1 construct: purchased Viva (custom protein)
# [2] = system: HAP1 MTAP-deleted cell line; experiment: SDMA in-cell western assay, HAP1 MTAP-deleted; assay type: cell-based; conditions: for IC50: Homo sapiens, HAP1, SDMA in-cell western, HAP1 MTAP-deleted; for MTAP intact/deleted ratio: SDMA in-cell western
# Procedure, shortened: (§1)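 Compounds were tested in HAP1 cells differing only in MTAP status (endogenous expression versus null). Cellular SDMA levels were then measured by in-cell western, giving an IC50 in each background.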
# [3] = system: HAP1 MTAP-intact cell line; experiment: SDMA in-cell western assay, HAP1 MTAP-intact; assay type: cell-based; conditions: Homo sapiens, HAP1, SDMA in-cell western, HAP1 MTAP-intact; read-out: MTAP HAP1 intact IC50
# Procedure, shortened: as §1
# PRMT5 [4] = target: T1, PRMT5; experiment: PRMT5 biochemical IC50 assay with MTA as cofactor; conditions: PRMT5, MTA as cofactor; read-out: MTA IC50
# PRMT5 [5] = target: T1, PRMT5; experiment: PRMT5 biochemical IC50 assay with no cofactor; conditions: PRMT5, no cofactor; read-out: No Cofactor/rel IC50
# Source text: Table 1 indicates IC50 values (μM) against PRMT5 for exemplary compounds in the presence of SAM as cofactor, with no cofactor, and with MTA as cofactor, respectively (columns 4-6). […] Ki values can be calculated from the IC50 values as described in the Examples section. As detailed in the Examples section, for the assay performed in the presence of SAM, IC50=Ki×1.5 (Ki=IC50/1.5).
# [6] = read-out: HAP1 MTAP deleted IC50
# [7] = IC50 ratio HAP1 MTAP-intact / HAP1 MTAP-deleted
# [8] = read-out: HAP 1 MTAP deleted IC50
# [9] = IC50 ratio HAP1 MTAP-intact vs HAP1 MTAP-deleted
# T1 sequence (O14744 whole entry): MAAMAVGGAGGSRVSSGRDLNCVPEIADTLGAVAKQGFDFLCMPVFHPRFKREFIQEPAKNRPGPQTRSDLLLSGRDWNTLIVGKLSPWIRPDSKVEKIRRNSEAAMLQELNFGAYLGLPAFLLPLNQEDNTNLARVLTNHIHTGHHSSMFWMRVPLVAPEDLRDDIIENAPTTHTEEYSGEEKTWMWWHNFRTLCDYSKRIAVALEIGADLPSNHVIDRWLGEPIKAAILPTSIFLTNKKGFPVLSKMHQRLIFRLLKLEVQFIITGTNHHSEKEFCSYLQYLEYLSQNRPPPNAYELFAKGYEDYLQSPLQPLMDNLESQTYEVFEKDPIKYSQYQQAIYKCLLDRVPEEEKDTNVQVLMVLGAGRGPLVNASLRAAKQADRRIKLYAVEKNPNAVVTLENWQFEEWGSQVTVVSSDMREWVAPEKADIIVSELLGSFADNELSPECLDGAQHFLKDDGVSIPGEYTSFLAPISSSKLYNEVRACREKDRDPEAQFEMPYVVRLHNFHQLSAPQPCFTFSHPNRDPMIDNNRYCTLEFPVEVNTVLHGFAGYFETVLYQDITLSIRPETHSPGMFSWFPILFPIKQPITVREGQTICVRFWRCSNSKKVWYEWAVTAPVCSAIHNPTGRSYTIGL
# T1 sequence (Q9BQA1 whole entry partner): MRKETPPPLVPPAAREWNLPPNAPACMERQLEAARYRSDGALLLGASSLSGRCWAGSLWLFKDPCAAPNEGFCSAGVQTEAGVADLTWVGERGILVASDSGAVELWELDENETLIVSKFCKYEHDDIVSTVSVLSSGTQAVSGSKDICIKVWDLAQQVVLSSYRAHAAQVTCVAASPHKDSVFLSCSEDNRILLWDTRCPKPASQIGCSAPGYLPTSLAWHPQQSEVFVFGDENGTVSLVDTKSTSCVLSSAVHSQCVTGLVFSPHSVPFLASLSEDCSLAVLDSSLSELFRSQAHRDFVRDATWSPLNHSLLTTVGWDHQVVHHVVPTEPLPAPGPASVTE
Structure (SMILES),IC50 (PRMT5 [1]),"IC50 [2, 6]","MTAP intact/deleted ratio [2, 7]",IC50 [3],IC50 (PRMT5 [4]),IC50 (PRMT5 [5]),"IC50 [2, 8]","MTAP intact/deleted ratio [2, 9]"
"CNc1cccc([C@H]2CCCCN2C(=O)C(=O)Nc2cncc(C(N)=O)c2)c1 (single isomer, unassigned) [Compound 316]",> 500 nM,> 1000 nM,C (an IC50 ratio of less than 3 fold),> 1000 nM,50 to 500 nM,> 500 nM,,
Cc1cc(NC(=O)C(=O)N2C[C@H](C)CC[C@H]2c2ccc(NC3COC3)cc2)cnc1N (racemic) [Compound 1048],50 to 500 nM,,B (an IC50 ratio greater than or equal to 3 fold but lower than 10 fold),100 to 1000 nM,50 to 500 nM,50 to 500 nM,< 100 nM,
"Cc1cc(NC(=O)C(=O)N2C[C@@H](C)CC[C@@H]2c2cc[nH]n2)cnc1N (single isomer, unassigned) [Compound 1071]",50 to 500 nM,> 1000 nM,,> 1000 nM,< 50 nM,50 to 500 nM,,C (an IC50 ratio of less than 3 fold)
"C[C@H]1CC[C@H](c2cc(F)c(F)c(Cl)c2)N(C(=O)C(=O)Nc2cncc(C(N)=O)c2)C1 (single isomer, unassigned) [Compound 846]",> 500 nM,> 1000 nM,C (an IC50 ratio of less than 3 fold),> 1000 nM,> 500 nM,> 500 nM,,
"C[C@@H]1CC[C@@H](c2csc3ccccc23)N(C(=O)C(=O)Nc2cncc(C(N)=O)c2)C1 (single isomer, unassigned) [Compound 463]",50 to 500 nM,100 to 1000 nM,A (an IC50 ratio greater than or equal to 10 fold),> 1000 nM,< 50 nM,50 to 500 nM,,
"Cc1cc(NC(=O)C(=O)N2C[C@@H](C)CC[C@H]2C23CC(C(N)=O)(C2)C3)cnc1N (single isomer, unassigned) [Compound 1053]",> 500 nM,,A (an IC50 ratio greater than or equal to 10 fold),> 1000 nM,50 to 500 nM,> 500 nM,100 to 1000 nM,
"COc1ncc(NC(=O)C(=O)N2C[C@@H](C)CC[C@@H]2c2ccc3nn(C)cc3c2)cc1C(N)=O (single isomer, unassigned) [Compound 1059]",50 to 500 nM,,A (an IC50 ratio greater than or equal to 10 fold),> 1000 nM,< 50 nM,50 to 500 nM,< 100 nM,
"Cc1cc(NC(=O)C(=O)N2C[C@H](C)CC[C@H]2C23CC(C(N)=O)(C2)C3)cnc1N (single isomer, unassigned) [Compound 1070]",> 500 nM,> 1000 nM,,> 1000 nM,> 500 nM,> 500 nM,,B (an IC50 ratio greater than or equal to 3 fold but lower than 10 fold)
"CNc1cccc([C@H]2CC[C@H](C)CN2C(=O)C(=O)Nc2cncc(C(N)=O)c2)c1 (single isomer, unassigned) [Compound 321]",> 500 nM,> 1000 nM,C (an IC50 ratio of less than 3 fold),> 1000 nM,> 500 nM,> 500 nM,,
"CC(=O)N1CCC(c2cccc([C@@H]3CC[C@@H](C)CN3C(=O)C(=O)Nc3cnc(N)c(C)c3)c2)CC1 (single isomer, unassigned) [Compound 331]",> 500 nM,> 1000 nM,C (an IC50 ratio of less than 3 fold),> 1000 nM,> 500 nM,> 500 nM,,
"COc1ncc(NC(=O)C(=O)N2C[C@@H](C)C(F)(F)C[C@@H]2c2ccc(F)cc2)cc1C(N)=O (single isomer, unassigned) [Compound 1047]",> 500 nM,,C (an IC50 ratio of less than 3 fold),> 1000 nM,> 500 nM,> 500 nM,> 1000 nM,
"CCc1cc(NC(=O)C(=O)N2C[C@@H](C)CC[C@@H]2c2cc3cn[nH]c3s2)cnc1N (single isomer, unassigned) [Compound 1075]",50 to 500 nM,< 100 nM,,100 to 1000 nM,< 50 nM,< 50 nM,,A (an IC50 ratio greater than or equal to 10 fold)
